According to US20240279278A1, “NMU RECEPTOR 2 AGONISTS” (Boehringer Ingelheim International GmbH, priority 2023, published 2024):
In brackets after ≈: the same amount, converted by molar mass. Residues, ends and D or L forms follow the SMILES beside them.

Columns and labels:
human NMUR2 receptor = human NMUR2 receptor (Homo sapiens, UniProt Q9GZQ4); experiment: IP1 Gq HTRF assay, activation of human NMUR2 in buffer; type: cell-based; set-up: expressed in transfected cells; host or cells: CHO-K1; details: CHO-K1 cells expressing human NMUR2, stimulation buffer with 0.1% BSA; read-out: EC50 (hNMUR2) buffer
Outline: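 CHO-K1 cells stably expressing human NMUR1 or NMUR2, seeded 24 h before assay, stimulated with peptide agonists (8-point dose-response, 1% DMSO final) in HEPES/HBSS buffer with 50 mM LiCl and 0.1% BSA, pH 7.4, 1 h at 37 °C. IP1 accumulation read by HTRF competition (665/620 nm); EC50 from 4-parameter sigmoidal fit.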

physchem = type: physicochemical
Outline: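 Peptide TFA salts were shaken at a nominal 10 mg/mL in 0.1 M phosphate buffer, pH 6 to 8, for 2 h at room temperature and then filtered. Reversed-phase HPLC peak area was compared with a 1 mg/mL control in buffer or DMSO to give solubility. The pH of each sample was recorded.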

human NMUR1 receptor = molecular target: T1, human NMUR1 receptor (Homo sapiens, UniProt Q9HB89); experiment: Radioligand binding competition assay (RLB), human NMUR1 receptor binding (SPA, [125I]-Neuromedin U-25); details: CHO-K1 hNMUR1 cell membranes, 4 hours at RT
T1 construct: host or cells: CHO-K1
T1 sequence (Q9HB89 24-426 limits assumed): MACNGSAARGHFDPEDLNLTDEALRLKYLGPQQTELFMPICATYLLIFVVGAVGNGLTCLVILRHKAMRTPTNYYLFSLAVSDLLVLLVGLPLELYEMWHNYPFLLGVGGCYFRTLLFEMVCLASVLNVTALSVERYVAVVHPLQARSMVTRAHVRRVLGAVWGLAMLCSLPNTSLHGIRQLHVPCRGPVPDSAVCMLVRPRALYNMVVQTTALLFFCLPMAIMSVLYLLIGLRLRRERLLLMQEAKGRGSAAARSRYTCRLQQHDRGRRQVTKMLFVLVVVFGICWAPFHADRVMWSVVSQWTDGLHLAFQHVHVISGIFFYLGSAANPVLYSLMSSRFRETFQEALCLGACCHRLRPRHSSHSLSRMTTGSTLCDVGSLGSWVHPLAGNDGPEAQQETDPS
From the text: Example 2: Radioligand Binding Competition Assay (RLB) Human NMUR1 Receptor Binding 1) Membranes The test is based on membranes prepared from a human NMUR1/Apoaequorin Stable Cell Line (Creative Biogene, Cat. No. CSC-RG1308). Cell Line Description: CHO-NMUR1 cell line is clonally-derived from a CHO-K1 cell line, which has been transfected with a bicistronic expression plasmid containing the sequence coding for the human neuromedin U receptor 1 (NM_006056.4, 180 to 1391). Mosaic-ID: CL16550614 Membrane preparation: Cells were broken by nitrogen cavitation (900 psi, 1 hour). Intact cells were removed by centrifugation (400 rcf, 10 minutes, 4° C.) before the crude membrane fraction was collected by ultracentrifugation (20.000 rcf, 1 hour, 4° C.). 2) Human NMUR1 Receptor Binding Assay (Radioligand: [125l]-Neuromedin U-25) In this Scintillation Proximity Assay (SPA) design, the membranes immobilize directly to the PVT-WGA-PEI type A beads (polyethyleneimine treated polyvinyltoluene beads coupled to wheatgerm agglutinin, Perkin Elmer) via interactions of wheat germ agglutinate and glycosylated membrane structures. Thereby the radioactively la-belled ligand, bound to NMUR1 receptors on the membrane, comes in close proximity to the solid scintillator of the PVT bead. Radioactive human neuromedin U-25 then stimulates the scintillant to emit light. In contrast, radioligand not bound to the receptor is too distant from the bead to elicit a signal. For the Scintillation Proximity Assay the CHO-K1 hNMUR1 cell membranes and SPA-beads are diluted to concentrations, which assure a robust signal to background ratio. The SPA incubation buffer consists of 25 mM Hepes (pH=7.0), 5 mM MgCl2, 1 mM CaCl2, 10 ug/mL Saponine and 0.1% bovine serum albumin and is used for all dilutions. Final assay setup in 96-well plate: 20 μL of 10× test compound dilutions+40 μL of 5× [125l]-Neuromedin U-25 (1× approx. 30 pM; 2000 μCi/mmol (μCi=microcurie))+60 μL membrane dilution (approx. 1.0 μg membrane protein)+80 μL SPA bead dilution (250 μg). The assay is incubated for 4 hours at RT, including controls for specific binding where no displacer is added and non-specific binding by adding unlabeled hNMU-25 at 100 nM. Bound radioactivity is determined by scintillation counting (MicroBeta Trilux 1450, Perkin Elmer, detection of 125I decay). […] The system assumes one binding site with no relevant radioligand depletion (<10%) and that the binding is reversible and at equilibrium. [formula] [formula]

human NMUR2 receptor, sequence (Q9GZQ4 whole entry): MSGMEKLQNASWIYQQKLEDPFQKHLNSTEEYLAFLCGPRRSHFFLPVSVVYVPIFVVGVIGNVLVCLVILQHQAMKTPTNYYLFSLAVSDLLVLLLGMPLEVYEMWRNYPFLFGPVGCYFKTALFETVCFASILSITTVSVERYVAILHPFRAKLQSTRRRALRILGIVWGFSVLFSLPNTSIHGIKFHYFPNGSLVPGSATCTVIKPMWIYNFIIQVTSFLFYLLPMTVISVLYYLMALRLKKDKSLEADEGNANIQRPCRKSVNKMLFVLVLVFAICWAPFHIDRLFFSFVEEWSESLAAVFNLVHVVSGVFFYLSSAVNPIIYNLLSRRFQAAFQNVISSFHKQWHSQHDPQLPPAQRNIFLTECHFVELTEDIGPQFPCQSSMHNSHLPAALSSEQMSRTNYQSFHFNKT

Structure (SMILES)	EC50 (human NMUR2 receptor)	solubility at 2 h (physchem; pH 7.3)	Ki (human NMUR1 receptor)	solubility at 2 h (physchem; pH 7.2)
CCCC[C@H](NC(=O)[C@H](CC(C)C)N(C)C(=O)[C@H](Cc1ccccc1)NC(=O)[C@H](Cc1ccc(O)cc1)NC(=O)CN1CCN(CCNC(=O)CN(C)C(=O)CN(C)C(=O)CN(C)C(=O)CN(C)C(=O)CN(C)C(=O)CN(C)C(=O)CN(C)C(=O)CN(C)C(=O)CN(C)C(=O)CN(C)C(=O)CN(C)C(=O)CN(C)C(=O)CN(C)C(=O)CN(C)C(=O)CN(C)C(=O)CC[C@H](NC(=O)CC[C@H](NC(=O)CC[C@H](NC(=O)CCCCCCCCCCCCCCCCC(=O)O)C(=O)O)C(=O)O)C(=O)O)CC1)C(=O)N[C@@H](CCN)C(=O)N(C)[C@@H](C)C(=O)N[C@@H](CCCNC(=N)N)C(=O)NCC(N)=O [Compound 23, C18DA-gGlu3-Sar15-AEPipAc-Tyr-Phe-NMeLeu-Nle-Dbu-NMeAla-Arg-Gly-NH2] (HELM PEPTIDE1{[O=C(O)CCCCCCCCCCCCCCCCC(=O)[*:2]].[gGlu].[gGlu].[gGlu].[Sar].[Sar].[Sar].[Sar].[Sar].[Sar].[Sar].[Sar].[Sar].[Sar].[Sar].[Sar].[Sar].[Sar].[Sar].[O=C(CN1CCN(CCN[*:1])CC1)[*:2]].Y.F.[meL].[Nle].[Dab].[meA].R.G.[am]}$$$$V2.0)	3.3 nM	8900 µg/mL (≈ 3.08 mM)	> 10000 nM	–
CCCC[C@H](NC(=O)[C@H](CC(C)C)N(C)C(=O)[C@H](Cc1ccccc1)NC(=O)[C@H](Cc1ccc(O)cc1)NC(=O)CN1CCN(CCNC(=O)CN(C)C(=O)CN(C)C(=O)CN(C)C(=O)CN(C)C(=O)CN(C)C(=O)CN(C)C(=O)CN(C)C(=O)CN(C)C(=O)CN(C)C(=O)CC[C@H](NC(=O)CC[C@H](NC(=O)CC[C@H](NC(=O)CCCCCCCCCCCCCCCCC(=O)O)C(=O)O)C(=O)O)C(=O)O)CC1)C(=O)N[C@@H](CCN)C(=O)N1CCC[C@H]1C(=O)N[C@@H](CCCNC(=N)N)C(=O)NCC(N)=O [Compound 24, C18DA-gGlu3-Sar9-AEPipAc-Tyr-Phe-NMeLeu-Nle-Dbu-Pro-Arg-Gly-NH2] (HELM PEPTIDE1{[O=C(O)CCCCCCCCCCCCCCCCC(=O)[*:2]].[gGlu].[gGlu].[gGlu].[Sar].[Sar].[Sar].[Sar].[Sar].[Sar].[Sar].[Sar].[Sar].[O=C(CN1CCN(CCN[*:1])CC1)[*:2]].Y.F.[meL].[Nle].[Dab].P.R.G.[am]}$$$$V2.0)	1.4 nM	9500 µg/mL (≈ 3.84 mM)	> 10000 nM	–
CCCC[C@H](NC(=O)[C@H](CC(C)C)N(C)C(=O)[C@H](Cc1ccccc1)NC(=O)[C@H](Cc1ccc(O)cc1)NC(=O)CN1CCN(CCNC(=O)CN(C)C(=O)CN(C)C(=O)CN(C)C(=O)CN(C)C(=O)CN(C)C(=O)CN(C)C(=O)CN(C)C(=O)CN(C)C(=O)CN(C)C(=O)CN(C)C(=O)CN(C)C(=O)CN(C)C(=O)CC[C@H](NC(=O)CC[C@H](NC(=O)CC[C@H](NC(=O)CCCCCCCCCCCCCCCCC(=O)O)C(=O)O)C(=O)O)C(=O)O)CC1)C(=O)N[C@@H](CCCNC(=N)N)C(=O)N1CCC[C@H]1C(=O)N[C@@H](CCCNC(=N)N)C(=O)NCC(N)=O [Compound 25, C18DA-gGlu3-Sar12-AEPipAc-Tyr-Phe-NMeLeu-Nle-Arg-Pro-Arg-Gly-NH2]	1.1 nM	–	> 10000 nM	10000 µg/mL (≈ 3.65 mM)
CCCC[C@H](NC(=O)[C@H](CC(C)C)N(C)C(=O)[C@H](Cc1ccccc1)NC(=O)[C@H](Cc1ccc(O)cc1)NC(=O)CN1CCN(CCNC(=O)CN(C)C(=O)CN(C)C(=O)CN(C)C(=O)CN(C)C(=O)CN(C)C(=O)CN(C)C(=O)CN(C)C(=O)CN(C)C(=O)CN(C)C(=O)CN(C)C(=O)CN(C)C(=O)CN(C)C(=O)CN(C)C(=O)CN(C)C(=O)CN(C)C(=O)CC[C@H](NC(=O)CC[C@H](NC(=O)CC[C@H](NC(=O)CCCCCCCCCCCCCCCCC(=O)O)C(=O)O)C(=O)O)C(=O)O)CC1)C(=O)N[C@@H](CCN)C(=O)N1CCC[C@H]1C(=O)N[C@@H](CCCNC(=N)N)C(=O)NCC(N)=O [Compound 26, C18DA-gGlu3-Sar15-AEPipAc-Tyr-Phe-NMeLeu-Nle-Dbu-Pro-Arg-Gly-NH2] (HELM PEPTIDE1{[O=C(O)CCCCCCCCCCCCCCCCC(=O)[*:2]].[gGlu].[gGlu].[gGlu].[Sar].[Sar].[Sar].[Sar].[Sar].[Sar].[Sar].[Sar].[Sar].[Sar].[Sar].[Sar].[Sar].[Sar].[Sar].[O=C(CN1CCN(CCN[*:1])CC1)[*:2]].Y.F.[meL].[Nle].[Dab].P.R.G.[am]}$$$$V2.0)	1.5 nM	7700 µg/mL (≈ 2.66 mM)	> 10000 nM	–
CCCC[C@H](NC(=O)[C@H](CC(C)C)N(C)C(=O)[C@H](Cc1ccccc1)NC(=O)[C@H](Cc1ccc(O)cc1)NC(=O)CN1CCN(CCNC(=O)CN(C)C(=O)CN(C)C(=O)CN(C)C(=O)CN(C)C(=O)CN(C)C(=O)CN(C)C(=O)CN(C)C(=O)CN(C)C(=O)CN(C)C(=O)CN(C)C(=O)CN(C)C(=O)CN(C)C(=O)CC[C@H](NC(=O)CC[C@H](NC(=O)CC[C@H](NC(=O)CCCCCCCCCCCCCCCCC(=O)O)C(=O)O)C(=O)O)C(=O)O)CC1)C(=O)N[C@@H](CCN)C(=O)N1CCC[C@H]1C(=O)N[C@@H](CCCNC(=N)N)C(=O)NCC(N)=O [Compound 27, C18DA-gGlu3-Sar12-AEPipAc-Tyr-Phe-NMeLeu-Nle-Dbu-Pro-Arg-Gly-NH2]	1.2 nM	–	> 10000 nM	8800 µg/mL (≈ 3.28 mM)
CCCC[C@H](NC(=O)[C@H](CC(C)C)N(C)C(=O)[C@H](Cc1ccccc1)NC(=O)[C@H](Cc1ccc(O)cc1)NC(=O)CN1CCN(CCNC(=O)CN(C)C(=O)CN(C)C(=O)CN(C)C(=O)CN(C)C(=O)CN(C)C(=O)CN(C)C(=O)CN(C)C(=O)CN(C)C(=O)CN(C)C(=O)CC[C@H](NC(=O)CC[C@H](NC(=O)CC[C@H](NC(=O)CCCCCCCCCCCCCCCCC(=O)O)C(=O)O)C(=O)O)C(=O)O)CC1)C(=O)N[C@@H](CCN)C(=O)N(C)[C@@H](C)C(=O)N[C@@H](CCCNC(=N)N)C(=O)NCC(N)=O [Compound 28, C18DA-gGlu3-Sar9-AEPipAc-Tyr-Phe-NMeLeu-Nle-Dbu-NMeAla-Arg-Gly-NH2] (HELM PEPTIDE1{[O=C(O)CCCCCCCCCCCCCCCCC(=O)[*:2]].[gGlu].[gGlu].[gGlu].[Sar].[Sar].[Sar].[Sar].[Sar].[Sar].[Sar].[Sar].[Sar].[O=C(CN1CCN(CCN[*:1])CC1)[*:2]].Y.F.[meL].[Nle].[Dab].[meA].R.G.[am]}$$$$V2.0)	1.4 nM	–	> 10000 nM	8500 µg/mL (≈ 3.46 mM)
CCCC[C@H](NC(=O)[C@H](CC(C)C)N(C)C(=O)[C@H](Cc1ccccc1)NC(=O)[C@H](Cc1ccc(O)cc1)NC(=O)CN1CCN(CCNC(=O)CN(C)C(=O)CN(C)C(=O)CN(C)C(=O)CN(C)C(=O)CN(C)C(=O)CN(C)C(=O)CN(C)C(=O)CN(C)C(=O)CN(C)C(=O)CN(C)C(=O)CN(C)C(=O)CN(C)C(=O)CC[C@H](NC(=O)CC[C@H](NC(=O)CC[C@H](NC(=O)CCCCCCCCCCCCCCCCC(=O)O)C(=O)O)C(=O)O)C(=O)O)CC1)C(=O)N[C@@H](CCN)C(=O)N(C)[C@@H](C)C(=O)N[C@@H](CCCNC(=N)N)C(=O)NCC(N)=O [Compound 38, C18DA-gGlu3-Sar12-AEPipAc-Tyr-Phe-NMeLeu-Nle-Dbu-NMeAla-Arg-Gly-NH2]	1.9 nM	–	> 10000 nM	8800 µg/mL (≈ 3.29 mM)
